From ChEMBL document CHEMBL1914419, “Discovery of aryloxy tetramethylcyclobutanes as novel androgen receptor antagonists” (J Med Chem, 2011)

assay: Intrinsic clearance in human liver microsomes; format: ADME, Microsome

| SMILES | microsomal CLint |
| --- | --- |
| Cc1cc(C(=O)N[C@H]2C(C)(C)[C@H](Oc3ccc(C#N)c(Cl)c3)C2(C)C)nn1C | 40 µL/min/mg |
| CC(=O)N[C@H]1C(C)(C)[C@H](Oc2ccc(C#N)c(Cl)c2)C1(C)C | < 8 µL/min/mg |
| CC(=O)N[C@H]1C(C)(C)[C@H](Oc2ccc(C#N)c(C)c2)C1(C)C | < 7 µL/min/mg |
| CC(=O)N[C@H]1C(C)(C)[C@H](Oc2ccc(C#N)c(C(F)(F)F)c2)C1(C)C | 11 µL/min/mg |
| CC(=O)N[C@H]1C(C)(C)[C@H](Oc2ccc(C#N)cc2Cl)C1(C)C | 17.5 µL/min/mg |
| CC1(C)[C@H](NC(=O)c2cnccn2)C(C)(C)[C@H]1Oc1ccc(C#N)c(Cl)c1 | 9.8 µL/min/mg |
| CC1(C)[C@H](NC(=O)c2cn[nH]c2)C(C)(C)[C@H]1Oc1ccc(C#N)c(Cl)c1 | < 8 µL/min/mg |
| CC1(C)[C@H](NC(=O)c2cnc3ncccn23)C(C)(C)[C@H]1Oc1ccc(C#N)c(Cl)c1 | < 10 µL/min/mg |
| Cc1nc2ncccn2c1C(=O)N[C@H]1C(C)(C)[C@H](Oc2ccc(C#N)c(Cl)c2)C1(C)C | 19 µL/min/mg |
| COCCn1ccc(C(=O)N[C@H]2C(C)(C)[C@H](Oc3ccc(C#N)c(Cl)c3)C2(C)C)n1 | 57 µL/min/mg |
| CC1(C)[C@H](NC(=O)c2ccn(CCO)n2)C(C)(C)[C@H]1Oc1ccc(C#N)c(Cl)c1 | < 12 µL/min/mg |
| CC1(C)[C@H](NC(=O)c2cnn(CCO)c2)C(C)(C)[C@H]1Oc1ccc(C#N)c(Cl)c1 | 11 µL/min/mg |

Next, values leading:

| microsomal CLint | SMILES |
| --- | --- |
| < 7 µL/min/mg | CC(=O)N[C@H]1C(C)(C)[C@H](Oc2ccc(C#N)c(C#N)c2)C1(C)C |
| 9 µL/min/mg | Cn1cc(C(=O)N[C@H]2C(C)(C)[C@H](Oc3ccc(C#N)c(Cl)c3)C2(C)C)cn1 |
| 29 µL/min/mg | Cc1nnc(C(=O)N[C@H]2C(C)(C)[C@H](Oc3ccc(C#N)c(Cl)c3)C2(C)C)o1 |
| 25 µL/min/mg | CC1(C)[C@H](NC(=O)c2ccn(CCC#N)n2)C(C)(C)[C@H]1Oc1ccc(C#N)c(Cl)c1 |
| 15 µL/min/mg | CN(C)C(=O)Cn1ccc(C(=O)N[C@H]2C(C)(C)[C@H](Oc3ccc(C#N)c(Cl)c3)C2(C)C)n1 |
| < 8 µL/min/mg | Cc1nc(O[C@H]2C(C)(C)[C@H](NC(=O)c3cnc4ncccn34)C2(C)C)ccc1C#N |
